# According to patent US11690853B2, “Non-hormonal steroid modulators of NF-κβ for treatment of disease” (ReveraGen BioPharma, Inc., priority 2015, dated 2023):
# “Also recorded” adds a separate entry of the source.
# Columns and labels:
# mdx mice [1] = test: mdx mouse model: histological evaluation of gastrocnemius muscle (H&E); type: in vivo; conditions: H&E staining; 3 months treatment; comparison to untreated and prednisolone treated mdx mice
# Method: (§1) Separate groups (n=12-14) of mdx mice were treated with prednisolone (5 mg/kg/day; per oral in feed), Example 1 (20 and 40 mg/kg/day; per oral in feed) and Example 2 (20 and 40 mg/kg/day; per oral in feed) for 3 months. All mice underwent 30 min biweekly treadmill exercise during the treatment duration to unmask the mild disease phenotype of mdx mouse model.
# Hematoxylin and Eosin staining of gastrocnemius muscle of untreated mdx mice show significant degeneration and inflammation.
# C57BL/6 mice = test: Mouse carrageenan-induced paw edema model; type: in vivo; conditions: Example 7 10, 20, 40 mg/kg in cherry syrup; 5 hours after carrageenan
# Method: Female C57BL/6 mice (n=5 per group) were administered prednisone (5 mg/kg) and the compound of Example 7 (10, 20, 40 mg/kg) in cherry syrup. 24 hours later, drugs and vehicle control (syrup) were administered again. 2 hours later, mice were anesthetized, paw thickness was measured with a caliper to obtain a baseline value, and 1% carrageenan was injected subcutaneously in the subplantar region of the right hind paw. Mice were sacrificed 5 hours later and paw edema was measured via caliper. Change in thickness was calculated by subtracting baseline value from post-carrageenan injection value. Statistical analysis was performed using a Student's T-test.
# DBA/1 mice = test: Collagen antibody induced arthritis (CAIA) model; type: in vivo, mouse; parameters: Mean clinical severity score, Day 7 / Mean clinical severity score, Day 9 / Mean clinical severity score, Day 11 / Mean clinical severity score, Day 14: scale not given here; conditions: for Mean clinical severity score, Day 7 / Mean clinical severity score, Day 9 / Mean clinical severity score, Day 11 / Mean clinical severity score, Day 14: oral, day 0 through day 14; for Mean clinical severity score, Day 7 / Mean clinical severity score, Day 9 / Mean clinical severity score, Day 11 / Mean clinical severity score, Day 14 / Reduction as compared with vehicle-treated mice, Day 7 / Reduction as compared with vehicle-treated mice, Day 9 / Reduction as compared with vehicle-treated mice, Day 11 / Reduction as compared with vehicle-treated mice, Day 14: prednisone 5 mg/kg, Example 7 20 mg/kg
# Method: On day 1, DBA/1 mice (Jackson Labs, Bar Harbor, Me.) received an intraperitoneal (i.p.) injection of 2 mg of monoclonal antibody cocktail specific for collagen (CII) (MD Biosciences, St. Paul, Minn.). Two days later (day 3), mice received an i.p. injection of 100 μg of lipopolysaccharide (LPS). Mean clinical severity of CAIA was determined using a macroscopic clinical severity scoring system every 2-3 days by three individuals until the end of the experiment (day 14 post antibody cocktail injection). The scoring criteria was performed as follows:
# For intervention studies, mice (n=10) received an oral dose of 20 mg/kg of the compound of Example 7 suspended in cherry syrup (30 μl total volume) on day 0 through day 14. Additional groups of mice (n=10) received 5 mg/kg of prednisone in cherry syrup as a positive control, or cherry syrup alone as a negative control. On day 14, animals were sacrificed via CO2 exposure. Statistical analysis was performed using a two-way ANOVA followed by a Bonferroni post-hoc test.
# OVA-primed mice = test: OVA-induced mouse model of acute allergic asthma; type: in vivo; conditions: 20 mg/kg oral on days 6-11
# Method: The model used in the current studies has been previously described (Gwinn et al. 2006; Balsley et al. 2010). Briefly, mice were primed via intraperitoneal (i.p) injection with 50 μg of OVA in PBS with 100 μl of alum (200 μl total volume per mouse) on day 0. OVA-primed mice were challenged under light anesthesia (isoflurane) by intranasal delivery of 100 μg of OVA in PBS on days 7-10. Mice were sacrificed via CO2 exposure on day 12 for analysis.
# For in vivo intervention studies, mice (n=5) received an oral dose of 20 mg/kg of the compound of Example 7 suspended in cherry syrup (30 μl total volume) on days 6-11. Additional groups of mice (n=5) received 5 mg/kg of prednisone in cherry syrup as a positive control, or cherry syrup alone as a negative control. Following sacrifice on day 12, leukocytes were collected from the airways via bronchoalveolar lavage (BAL). For this procedure, a cannula was inserted into the trachea and two 1 ml washes of cold PBS were infused in and out of the airways. […]
# BAL and lung tissue cells were treated with ammonium chloride lysis buffer to remove red blood cells. The remaining leukocytes were then counted and stained for FACS analysis with a combination of PE-Cy5-anti-mouse CD4 and FITC-anti-mouse CD62L to identify effector/memory CD4+ cells (CD4+/CD62L−). […]
# [2] = test system: knockout-transgenic sickle cell mice; test: Mouse model of sickle cell disease; type: in vivo; conditions: 30 mg/kg, 6 weeks
# Method: Example 7 was tested in a mouse model of sickle cell disease, knockout-transgenic sickle cell mice were used which have been previously described in Meiler S E et al. 2001.
# Female knockout-transgenic sickle mice (aged 6-8 weeks), were treated for 6 weeks with Example 7, (30 mg/kg) (n=5), or a vehicle control (cherry syrup) (n=5). At the end of the 6 week treatment, hematologic parameters were measured and tissues were harvested. Additionally, nociception evaluation was performed before and after treatment by assessing sensitivity to hot and cold pain as previously described in Le Bars D. et al. 2001.
# DBA mdx mice = test: Heart function in mdx mice (echocardiography); type: in vivo, mouse; conditions: 15 and 30 mg/kg/day oral syrup, 8 weeks
# Description: To test the compound of Example 7 and its relationship to heart function, 4 groups of mdx mice (n=10, per group) and 1 group of wild type mice (n=10, per group) were studied. The groups were as indicated as such in Table 2.
# The method of administration was a daily oral syrup an the treatment period was eight (8) weeks. The age at the start of the first dose was 6-7 weeks. Echocardiography was used to assess ejection fraction and fraction shortening following drug treatment.
# [3] = test system: J:NU mice injected with BSG mouse CSPG4+/+ cells; test: Mouse model of diffuse intrinsic pontine glioma; type: in vivo
# Method: A murine model of brainstem glioma developed in Dr. Javad Nazarian's laboratory at Children's National Medical Center was used for testing VBP15 efficacy in vivo. BSG mouse CSPG4+/+ cells were expanded in culture to form neurospheres and were subsequently injected into brainstems of 2-day old (P2) J:NU mice. Dexamethasone (Dex) (2.5 mg/kg body weight), Example 7 (30 mg/kg body weight) and cherry syrup (control) were orally administered daily for […] starting on postnatal day 11. In another study, mice were treated daily with Dexamethasone (Dex) (2.5 mg/kg), Example 7 (30 mg/kg) or cherry syrup from post-natal days 10-46.
# Female beagle dogs = test: Corpora lutea in female dogs, 39-week treatment; type: in vivo, dog; conditions: at ≥2 mg/kg/day, dose-dependent increases in incidence; doses of 2, 10, or 50 mg/kg for 39 weeks
# Method: Female beagle dogs were treated with Example 7 for 39 weeks at doses of 2, 10, or 50 mg/kg. This experiment was performed at MPI (report #1998-014). Ovaries were examined by a trained pathologist.
# mdx mice [4] = test: mdx mouse model of dystrophy: body weight; type: in vivo; conditions: prednisolone 5 mg/kg/day per oral in feed; 33.8 weeks age; P<0.05
# Method: as §1
# mdx mice [5] = test: mdx mouse model: in vitro force contractions of EDL muscle; type: in vivo; conditions: prednisolone 5 mg/kg/day; P<0.05
# Method: as §1
# The distal tendon of the extensor digitorum longus (EDL) muscle was tied securely to the lever arm of a servomotor/force transducer (model 305B, Aurora Scientific, Richmond Hill, ON, Canada) and the proximal tendon to a tissue clamp. Muscles were stimulated between two platinum electrodes. […] With the muscle held at Lo using stimulation frequencies of 30, 50, 80, 100, 120 and 150 Hz, the maximum isometric tetanic force (Po) developed during a 300 ms train of stimulation pulses was recorded for the EDL muscle. The muscle length was then measured with calipers and after removal of the muscle from the bath the mass of the muscle was determined. For each muscle, the optimum fiber length (Lf) was calculated by multiplying Lo by a previously determined Lf/Lo ratio of 0.45. Total muscle fiber cross-sectional area was determined by dividing the wet mass by the product of Lf and the density of mammalian skeletal muscle (1.06 mg/mm^3). […]
Structure (SMILES),"Histology of skeletal muscle: inflammation, degeneration, regenerating fibers (mdx mice [1])","Mean clinical severity score, Day 7 (DBA/1 mice)","Mean clinical severity score, Day 9 (DBA/1 mice)","Mean clinical severity score, Day 11 (DBA/1 mice)","Mean clinical severity score, Day 14 (DBA/1 mice)","Reduction as compared with vehicle-treated mice, Day 7 (DBA/1 mice) [%]","Reduction as compared with vehicle-treated mice, Day 9 (DBA/1 mice) [%]","Reduction as compared with vehicle-treated mice, Day 11 (DBA/1 mice) [%]","Reduction as compared with vehicle-treated mice, Day 14 (DBA/1 mice) [%]",other results
"C[C@]12CCC(=O)C=C1CCC1C2=CC[C@@]2(C)C1CC[C@]2(O)C(=O)CO (stereo partly drawn) [Example 1, (10S,13S,17R)-17-hydroxy-17-(2-hydroxyacetyl)-10,13-dimethyl-6,7,8,10,12,13,14,15,16,17-decahydro-1H-cyclopenta[a]phenanthren-3(2H)-one]","significant decrease in inflammation, degeneration, and increase in regenerating muscle fibers",–,–,–,–,–,–,–,–,–
"C[C@]12C=CC(=O)C=C1CCC1C2=CC[C@@]2(C)C1CC[C@]2(O)C(=O)CO (stereo partly drawn) [Example 2, (10S,13S,17R)-17-hydroxy-17-(2-hydroxyacetyl)-10,13-dimethyl-6,7,8,10,12,13,14,15,16,17-decahydro-3H-cyclopenta[a]phenanthren-3-one]","significant decrease in inflammation, degeneration, and increase in regenerating muscle fibers",–,–,–,–,–,–,–,–,–
"C[C@@H]1CC2C3CCC4=CC(=O)C=C[C@]4(C)C3=CC[C@]2(C)[C@@]1(O)C(=O)CO (stereo partly drawn) [Example 7, (10S,13S,16R,17R)-17-hydroxy-17-(2-hydroxyacetyl)-10,13,16-trimethyl-6,7,8,10,12,13,14,15,16,17-decahydro-3H-cyclopenta[a]phenanthren-3-one]",–,4.5 ± 0.95,5.0 ± 0.77,5.6 ± 0.82,3.1 ± 0.69,43.8,35.5,41.3,50,"Paw edema induced by carrageenan (change in paw thickness) (C57BL/6 mice): effective at reducing mouse paw edema; Collagen antibody induced arthritis, overall effect (DBA/1 mice; 20 mg/kg oral): effective at reducing collagen antibody induced arthritis; Acute allergic lung inflammation: leukocyte infiltration (eosinophils and CD4+ T cells) and mucus production (OVA-primed mice): effective at improving parameters of acute allergic lung inflammation; Platelet count [2]: decreases; also recorded: reduces platelet count; Sensitivity to cold pain [2]: strikingly decreases sensitivity to cold pain; also recorded: reduces sensitivity to cold pain; Sensitivity to heat pain [2]: significantly decreases sensitivity to heat pain; also recorded: reduces sensitivity to heat pain; Spleen size [2]: decreased spleen size; also recorded: reduces spleen size; White blood cell count [2]: decreases white blood cell count; also recorded: reduces white blood cell count; Ejection fraction (DBA mdx mice): improved ejection fraction; Fraction shortening (DBA mdx mice): improved fraction shortening; Increase in survival relative to mice treated with dexamethasone or control mice ([3]; 30 mg/kg daily from post-natal days 10-46): 19%; Brain edema ([3]; 30 mg/kg oral daily for 14 weeks starting on postnatal day 11): significant decrease in brain edema; Corpora lutea in the ovaries (Female beagle dogs): absent bilaterally"
C[C@]12C=CC(=O)C=C1CC[C@@H]1[C@@H]2[C@@H](O)C[C@@]2(C)[C@H]1CC[C@]2(O)C(=O)CO [Prednisolone],appeared to increase degeneration and decrease in regeneration,–,–,–,–,–,–,–,–,"Body weight versus untreated mice (mdx mice [4]): significantly lower body weight; Specific force of EDL muscle, difference to untreated group (mdx mice [5]): no statistically significant (P<0.05) difference"
"C[C@]12C=CC(=O)C=C1CC[C@@H]1[C@@H]2C(=O)C[C@@]2(C)[C@H]1CC[C@]2(O)C(=O)CO [Prednisone, reference compound]",–,2.4 ± 0.68,1.5 ± 0.27,2.9 ± 0.39,0.7 ± 0.3,69.8,69.8,69.1,88.7,–
